Here are results for one compound from patent US20230277550A1, “Methods for Treating Respiratory Diseases Characterized by Mucus Hypersecretion” (The Board of Trustees of the Leland Stanford Junior …, priority 2020, published 2023).

Entries after “also recorded” stand apart in the source; their conditions may differ.

For one test, the system named is airway epithelia. In words: In vivo mouse model, ratio of MCCs to non-ciliated cells in airway epithelia after IP dosing. Details: species or system mice. As to the method:
Airways from lung sections of similar size were labeled for all nuclei (red; DAPI) and MCC cell fate (green; FoxJ1 and blue; acetylated tubulin). Cells were scored and the percentage of MCCs determined prior to unblinding treatment condition. Otherwise wildtype mice carried FoxJ1::GFP to facilitate scoring of MCCs.
10-40 week age-matched male and female Foxj1-GFP mice were given semagacestat or vehicle by intraperitoneal (IP) administration. In the first experiment, semagacestat was administered at 0.1 mg/kg and 1 mg/kg twice daily for three days and compared to vehicle alone. Mice were sacrificed on day 7. […] In approximately similar sized, PFA-fixed airways, nuclei (red; DAPI) were scored either as MCCs (green; GFP) or non-ciliated cells (absence of GFP). Acetylated tubulin (blue) marks cilia. Samples were blinded for treatment group prior to scoring.
In the second experiment, vehicle and semagacestat were administered once daily for 5 consecutive days per week for three weeks, with a semagacestat dose of 1 mg/kg. An important observed toxicity in multiple GSI clinical trials, including large Alzheimer’s Disease trials, was gastrointestinal toxicity. As a surrogate measure of GI toxicity, we monitored body weight throughout the experiment.
Body weight was measured on Days 1, 9, 24 and 30, and mice were sacrificed on day 31.

For test [1], the system named is wild-type control and CF (F508Δ/F508Δ) HNEC cultures. Kind of test: Combination of semagacestat and CFTR modulator, MCC differentiation. Format: cell-based. The settings on record: human CF samples with different CFTR mutations. As to the method: To assess the effects of combining semagacestat and CFTR modulator treatment, wild-type control and CF (F508Δ/F508Δ) HNEC cultures were grown to maturity with or without semagacestat from ALI +0-21d and cultures were treated with or without Lumacaftor (VX-809) from ALI +19-21d and Ivacaftor (VX-770) for ten minutes prior to fixation. PFA fixed membranes were then stained for Acetylated tubulin (green; MCCs) and E-Cadherin (red).
In some cases, such as this one, the semagacestat-induced increase in MCC/total cell ratio is further increased by Lumacaftor. […] CF patients not eligible for Trikafta respond to semagacestat alone similarly to those on corrector therapy (not shown).

Test [2] deals with CFTR. Kind of test: Ussing chamber short circuit current (Isc) assay for CFTR activity. Format: cell-based, human. To be noted: two wild-type and two CF patient-derived cultures, treated 3x per week for 2 weeks. As to the method: (§1) Cells grown at an air liquid interface were mounted on a holding slider and inserted on an Ussing chamber for electrophysiological short circuit current (Isc) measurements. Solutions in the serosal and mucosal bath were prepared so that a chloride gradient was established between both sides. After stable baseline current recordings were obtained, agonists were added in the following order: amiloride (10 µM) to block sodium channel activity, forskolin (10 µM) to stimulate CFTR, Ivacaftor (10 µM) to potentiate CFTR activity, and CFTRinh-172 (20 µM) to block CFTR current. For each agonist signals were monitored until a plateau in current was noted before adding the next agonist. The delta-Isc in response to CFTRinh-172 was used as our main read out for CFTR-mediated chloride transport.
To assess the effect of GSIs (DAPT, Semagacestat) on CFTR function in cultured epithelia, HNECs from CF patients and non-CF controls were collected and grown at air-liquid interface to maturity (+21d) according to Vladar et al. Cultures were then treated with DAPT, Semagacestat, the CFTR modulator Lumacaftor or vehicle control added to basal media 3x per week for 2 weeks. Filter inserts were then assessed for short circuit current (Isc) against a chloride gradient in Ussing chambers to assess CFTR activity. […]

Test [3] concerns Primary human airway epithelial cells. In words: MCC formation by timing of GSI treatment (proliferation, differentiation, continuous). The class given is cell-based. As to the method: Primary human airway epithelial cells were treated with DAPT and LY45139: i) during proliferation only (ALI-5 to -1d), ii) during differentiation only (ALI+0 to +21d) or iii) continuously during the entire culture duration, followed by labeling at ALI+21d with anti-acetylated α-Tubulin (green) and ECAD (red) antibodies.

Test [4] has as its system HNEC cultures from a CF patient. In words: IL-13 induced chronic inflammation model in ALI HNEC cultures. The settings on record: DAPT 1 um, semagacestat 125 nm, days 14-21. Format: cell-based, human. As to the method: Administration of IL-13 to ALI cultures induces goblet cell hyperplasia and is a useful model of chronic inflammation. ALI HNEC cultures were prepared as described in Vladar et al. ALI cultures were treated with and without administration of Il-13 on days 7-14. DAPT (1 um), semagacestat (125 nm) or vehicle control were administered on days 14-21. PFA-fixed cultures were stained for Muc5AC (red; mucin producing secretory cells), Acetylated tubulin (green; MCCs) and E-Cadherin (blue to reveal cell boundaries).
HNEC cultures from a CF patient were treated with IL-13 from ALI+7 to 14 to induce inflammation. […] IL-13 treatment increases the percentage of mucin positive secretory cells and decreases the percentage of MCCs.

In test [5] the test system is CFTR. In words: CFTR current in Ussing chambers, GSI with or without ETI. Format: cell-based, human. The settings on record: cultures from CF patients, GSI plus ETI. As to the method: as §1
We directly measured CFTR activity in cultures from CF patients treated with GSI with or without well-established effective in vitro doses of Trikafta (Elexcaftor/Tezacaftor/Ivacaftor or “ETI”). Veit, G., et al., JCI (2020) 10.1172/jci.insight.139983. Measurements were performed in Ussing chambers. […] In some individual experiments, there appeared to be a synergistic effect in the combination treatment: GSI alone has no effect but the combination treatment produced a greater response than ETI alone. This effect was not consistently seen, but raised the possibility that synergy might be observed with lower ETI doses.
To examine this further, we tested MK04752 in combination with varying doses of ETI (FIG. 28).

Take `CC(C)[C@H](O)C(=O)N[C@@H](C)C(=O)N[C@@H]1C(=O)N(C)CCc2ccccc21` [semagacestat, (2S)-2-hydroxy-3-methyl-N-[(1S)-1-methyl-2-oxo-2-[[(1S)-2,3,4,5-tetrahydro-3-methyl-2-oxo-1H-3-benzazepin-1-yl]amino]ethyl]-butamide]: the “ratio of ciliated to non-ciliated cells” value is “increase; also recorded: a dose response trend was observed, with the high dose reaching statistical significance” in the test on airway epithelia (0.1 mg/kg and 1 mg/kg IP twice daily for three days, sacrificed day 7, vs vehicle); “significant increase; also recorded: highly significant” with airway epithelia (1 mg/kg IP once daily, 5 days per week for three weeks, day 31, vs vehicle). In addition, in test [1], the “percentage of MCCs in the presence of Lumacaftor” value was “effective at increasing the percentage of MCCs”. Besides, the “CFTR currents (inhibition of current after CFTRinh172) vs control conditions” value with CFTR [2] is listed as “equal to or greater than in control conditions”. Moreover, the MCC cell numbers entry in test [3] (treatment during differentiation (differentiation only ALI+0 to +21d, and continuous)) is listed as “increased MCC cell numbers”. Further, the effect on differentiation entry in test [3] (treatment during proliferation only (ALI-5 to -1d)) is reported as “had no effect on differentiation”. Further, the entries for the “percentage of MCCs” value in test [4] (after IL-13 (ALI+7 to 14)) and in test [4] (controls without IL-13) were “increasing the percentage of MCCs” and “increase the percentage off MCCs”, respectively. In test [4] (after IL-13 (ALI+7 to 14)), the “percentage of mucin positive secretory cells” value is given as “decreasing the percentage of mucin positive secretory cells”. In the test with CFTR [5], the “CFTR current induced by ETI” value is “Neither LY45139 (FIG. 26) nor MK04752 (FIG. 27) impaired the CFTR current”.
